Assay results published in ChEMBL document CHEMBL1201862, “PubChem BioAssay data set” (2004).
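Assay format: 96-well plates, 48-hour exposure. GI50 is the concentration that inhibits growth by half.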 Activity calls are given as the source filed them. Cut-off read from the data, not from the text of the source: active = GI50 up to about 1.1 µM and inactive = higher.

Columns and labels:
Assay in all cases: inhibition of tumour cell growth, NCI panel, 48 h
A498 = system: A498
CAKI-1 = system: CAKI-1
COLO 205 = system: COLO 205
DU-145 = system: DU-145
HCC 2998 = system: HCC 2998
HCT-116 = system: HCT-116
Hs-578T = system: Hs-578T
IGROV-1 = system: IGROV-1
KM12 = system: KM12
MDA-MB-435 = system: MDA-MB-435
MOLT-4 = system: MOLT-4
Malme-3M = system: Malme-3M
NCI-H460 = system: NCI-H460
OVCAR-8 = system: OVCAR-8
RXF 393 = system: RXF 393
SF-539 = system: SF-539
SK-OV-3 = system: SK-OV-3
SN12C = system: SN12C
SNB-19 = system: SNB-19
SW-620 = system: SW-620

Compound	GI50 (A498)	GI50 (CAKI-1)	GI50 (COLO 205)	GI50 (DU-145)	GI50 (HCC 2998)	GI50 (HCT-116)	GI50 (Hs-578T)	GI50 (IGROV-1)	GI50 (KM12)	GI50 (MDA-MB-435)	GI50 (MOLT-4)	GI50 (Malme-3M)	GI50 (NCI-H460)	GI50 (OVCAR-8)	GI50 (RXF 393)	GI50 (SF-539)	GI50 (SK-OV-3)	GI50 (SN12C)	GI50 (SNB-19)	GI50 (SW-620)
CS(=O)(=O)c1nc(Cl)c(Cl)c(C#N)c1Cl	17.5 µM (inactive)	0.984 µM (active)	1.45 µM (inactive)	11.4 µM (inactive)	14.2 µM (inactive)	2.25 µM (inactive)	4.34 µM (inactive)	6.59 µM (inactive)	6.97 µM (inactive)	2.01 µM (inactive)	0.838 µM (active)	2.3 µM (inactive)	11.5 µM (inactive)	2.88 µM (inactive)	1.61 µM (inactive)	4.48 µM (inactive)	6.75 µM (inactive)	2.27 µM (inactive)	19.8 µM (inactive)	1.14 µM (inactive)
Nc1nc(Br)nc2ncn(C3CC(O)C(CO)O3)c12 (stereo not given)	> 100 µM (inactive)	16 µM (inactive)	67.3 µM (inactive)	> 100 µM (inactive)	> 60.8 µM (inactive)	26.4 µM (inactive)	> 100 µM (inactive)	> 100 µM (inactive)	> 100 µM (inactive)	> 100 µM (inactive)	0.0212 µM (active)	> 100 µM (inactive)	85.1 µM (inactive)	0.236 µM (active)	> 100 µM (inactive)	58.7 µM (inactive)	> 100 µM (inactive)	10 µM (inactive)	42.2 µM (inactive)	> 24.8 µM (inactive)
CCOC(=O)C(SCCO)C(C(=O)OCC)n1ccc(N)nc1=O (stereo not given)	> 100 µM (inactive)	> 100 µM (inactive)	> 100 µM (inactive)	> 100 µM (inactive)	> 100 µM (inactive)	> 100 µM (inactive)	> 100 µM (inactive)	> 100 µM (inactive)	> 100 µM (inactive)	> 100 µM (inactive)	> 100 µM (inactive)	> 100 µM (inactive)	> 100 µM (inactive)	> 100 µM (inactive)	–	> 100 µM (inactive)	> 100 µM (inactive)	> 100 µM (inactive)	> 100 µM (inactive)	> 100 µM (inactive)
CCOC(=O)C1=C(C)N(Cc2ccc(Cl)cc2Cl)C2(O)C=CC(=O)C3C(=O)N(c4ccccc4)C(=O)C132 (stereo not given)	4.57 µM (inactive)	3.02 µM (inactive)	1.7 µM (inactive)	1.36 µM (inactive)	1.71 µM (inactive)	3.11 µM (inactive)	3.37 µM (inactive)	1.78 µM (inactive)	1.71 µM (inactive)	1.81 µM (inactive)	1.41 µM (inactive)	2.09 µM (inactive)	2.1 µM (inactive)	2.02 µM (inactive)	1.32 µM (inactive)	2.23 µM (inactive)	–	1.91 µM (inactive)	1.88 µM (inactive)	1.32 µM (inactive)
FC(F)(F)c1nc2cc(SSc3cc4nc(C(F)(F)F)[nH]c4cc3Cl)c(Cl)cc2[nH]1	> 100 µM (inactive)	> 100 µM (inactive)	53.7 µM (inactive)	> 100 µM (inactive)	> 100 µM (inactive)	> 100 µM (inactive)	> 100 µM (inactive)	> 100 µM (inactive)	–	> 100 µM (inactive)	> 100 µM (inactive)	82.8 µM (inactive)	> 100 µM (inactive)	> 100 µM (inactive)	> 100 µM (inactive)	> 100 µM (inactive)	> 100 µM (inactive)	> 100 µM (inactive)	> 100 µM (inactive)	> 100 µM (inactive)
Cc1ccc(C(=O)Nc2ccc(CP(=O)(O)O)cc2)cc1NC(=O)c1cccc(N)c1	> 100 µM (inactive)	> 100 µM (inactive)	> 100 µM (inactive)	> 100 µM (inactive)	> 100 µM (inactive)	> 100 µM (inactive)	> 100 µM (inactive)	> 100 µM (inactive)	> 100 µM (inactive)	> 100 µM (inactive)	> 100 µM (inactive)	> 100 µM (inactive)	–	> 100 µM (inactive)	> 100 µM (inactive)	> 100 µM (inactive)	> 100 µM (inactive)	> 100 µM (inactive)	> 100 µM (inactive)	> 100 µM (inactive)
COc1ccc2c(C)c(Oc3c(Cl)c(Cl)c(O)c(C#N)c3C#N)oc2c1	> 100 µM (inactive)	> 100 µM (inactive)	> 100 µM (inactive)	> 100 µM (inactive)	> 100 µM (inactive)	> 100 µM (inactive)	> 100 µM (inactive)	> 100 µM (inactive)	> 100 µM (inactive)	> 100 µM (inactive)	> 100 µM (inactive)	> 100 µM (inactive)	> 100 µM (inactive)	> 100 µM (inactive)	–	> 100 µM (inactive)	> 100 µM (inactive)	> 100 µM (inactive)	> 100 µM (inactive)	> 100 µM (inactive)
